For test [1], the system named is femur fracture. Description: Callus development analysis via qCT after femur fracture. It counts as in vivo, rat. Conditions: osteotomy site. As to the method: As briefly mentioned above, efficacy of the present nutraceutical composition was tested. Fifty-eight male Sprague-Dawley rats (10 weeks old, body weight (BW): 344±11 g) were used for this study, which was approved by the Institutional Animal Care and Use Committee of the Charles R. Drew University of Medicine and Science. The rats were housed for one week prior to experimental procedures to permit acclimatization and then randomly assigned to three groups. The control group (n=19 rats) received 0.2 ml of vehicle composed of 10% dimethyl sulfoxide (DMSO), peanut butter and water by retro-lingual administration. The tadalafil group (n=20 rats) was given a daily oral dose of 2.0 mg/kg body weight (BW) of the PDE5 inhibitor, tadalafil (Eli Lilly, Indianapolis, Ind.), mixed with vehicle. […] The COMB-4 group (Naturex, […]=19 rats), that is, the group receiving the nutraceutical composition in accordance with the present invention, received a combination of Muira puama (45 mg/kg body weight BW), Paullinia cupana (45 mg/kg BW), ginger (45 mg/kg BW) and L-citrulline (133 mg/kg BW) dissolved in vehicle. The appropriate rat dose of each of the four components of COMB-4 was calculated based on the equivalent recommended human daily dose as previously reported. See International Patent Publication Number WO 2012/067745 A 1 for more details on the ingredients in COMB-4, ranges of ingredients, and the beneficial effects thereof in treating Erectile Dysfunction and cardiovascular disease. All animals received the vehicle only for the three days prior to surgery to get the animals adapted to the taste, and began receiving either their respectively assigned control or experimental daily dose of tadalafil or COMB-4 on the same day right after the fracture (day 0). All surgeries were performed by one orthopedic surgeon who was blinded to the rats' experimental assignment. Anesthesia was induced with 3% isoflurane and maintained with 2.5% isoflurane throughout the surgery. All rats received subcutaneous injections of buprenorphine 0.05 mg/kg body weight for pre- and post-operative pain control. Each rat then underwent a unilateral femur fracture with internal fixation. […] The underlying fascia was incised at the medial patellar tendon border and the patella was dislocated laterally. The trochlea was opened with a 1.0 mm drill bit and the intramedullary canal and greater trochanter were […] 21-3 gauge hypodermic needle. The intramedullary canal was sequentially […] 18-gauge needle, and the epicondyle was further opened with a 16-gauge needle. The femoral shaft was accessed by sweeping the vastus medialis laterally. A cat claw scissors (Petco, San Diego, Calif.) placed at the junction of the middle and distal one-third of the femoral shaft was used to make a transverse fracture. A randomizer table was used to determine laterality of the osteotomy. While maintaining control of both fracture fragments, a titanium compression intramedullary screw ([…], Davos, Switzerland) was applied in a retrograde manner while directly visualizing the fracture reduction. […] The fascia and skin were closed in two layers utilizing 4-0 Vicryl (Ethicon Inc., Somerville, N.J.) and VetBond skin glue (3M, St. Paul, Minn.). A small amount of triple antibiotic ointment ([…].) was applied to the skin. Range of motion at the hip and knee was performed to ensure there was no penetration of the screw proximally and that the patella was adequately tracking. Unprotected weight bearing was permitted immediately postoperatively, and on day 14, 5 rats from each group were euthanized using inhalational CO2 and femora were harvested for qCT (quantitative computerized tomography) and histological evaluation. On day 42, fifteen (15) rats from each group were euthanized for qCT and histological evaluation. The remaining rats were euthanized for biomechanical testing. Mineral Content and Callus Volume. […]

Test [2] relates to femur fracture. Description: Biomechanical evaluation (torsion to failure) of healing femur fracture. It is filed as in vivo, rat. As to the method:
As briefly mentioned above, efficacy of the present nutraceutical composition was tested. Fifty-eight male Sprague-Dawley rats (10 weeks old, body weight (BW): 344±11 g) were used for this study, which was approved by the Institutional Animal Care and Use Committee of the Charles R. Drew University of Medicine and Science. The rats were housed for one week prior to experimental procedures to permit acclimatization and then randomly assigned to three groups. The control group (n=19 rats) received 0.2 ml of vehicle composed of 10% dimethyl sulfoxide (DMSO), peanut butter and water by retro-lingual administration. The tadalafil group (n=20 rats) was given a daily oral dose of 2.0 mg/kg body weight (BW) of the PDE5 inhibitor, tadalafil (Eli Lilly, Indianapolis, Ind.), mixed with vehicle. […] The COMB-4 group (Naturex, […]=19 rats), that is, the group receiving the nutraceutical composition in accordance with the present invention, received a combination of Muira puama (45 mg/kg body weight BW), Paullinia cupana (45 mg/kg BW), ginger (45 mg/kg BW) and L-citrulline (133 mg/kg BW) dissolved in vehicle. The appropriate rat dose of each of the four components of COMB-4 was calculated based on the equivalent recommended human daily dose as previously reported. See International Patent Publication Number WO 2012/067745 A 1 for more details on the ingredients in COMB-4, ranges of ingredients, and the beneficial effects thereof in treating Erectile Dysfunction and cardiovascular disease. All animals received the vehicle only for the three days prior to surgery to get the animals adapted to the taste, and began receiving either their respectively assigned control or experimental daily dose of tadalafil or COMB-4 on the same day right after the fracture (day 0). All surgeries were performed by one orthopedic surgeon who was blinded to the rats' experimental assignment. Anesthesia was induced with 3% isoflurane and maintained with 2.5% isoflurane throughout the surgery. All rats received subcutaneous injections of buprenorphine 0.05 mg/kg body weight for pre- and post-operative pain control. Each rat then underwent a unilateral femur fracture with internal fixation. […] The underlying fascia was incised at the medial patellar tendon border and the patella was dislocated laterally. The trochlea was opened with a 1.0 mm drill bit and the intramedullary canal and greater trochanter were […] 21-3 gauge hypodermic needle. The intramedullary canal was sequentially […] 18-gauge needle, and the epicondyle was further opened with a 16-gauge needle. The femoral shaft was accessed by sweeping the vastus medialis laterally. A cat claw scissors (Petco, San Diego, Calif.) placed at the junction of the middle and distal one-third of the femoral shaft was used to make a transverse fracture. A randomizer table was used to determine laterality of the osteotomy. While maintaining control of both fracture fragments, a titanium compression intramedullary screw ([…], Davos, Switzerland) was applied in a retrograde manner while directly visualizing the fracture reduction. […] The fascia and skin were closed in two layers utilizing 4-0 Vicryl (Ethicon Inc., Somerville, N.J.) and VetBond skin glue (3M, St. Paul, Minn.). […] Unprotected weight bearing was permitted immediately postoperatively, and on day 14, 5 rats from each group were euthanized using inhalational CO2 and femora were harvested for qCT (quantitative computerized tomography) and histological evaluation. […]

The mark [3] stands for this setting: Newly formed Total Callus (>299 mg/cm^3), Day 14, mean ± S.D.
Where [4] appears, read: Newly formed Total Callus (>299 mg/cm^3), Day 42, mean ± S.D.
Where [5] appears, read: Newly formed Total Callus (>500 mg/cm^3), Day 14, mean ± S.D.
Where [6] appears, read: Newly formed Total Callus (>500 mg/cm^3), Day 42, mean ± S.D.
The mark [7] stands for this setting: day 42, relative to control group.
[8] abbreviates: day 42, torsion test, mean ± S.D.

`CN1CC(=O)N2[C@H](c3ccc4c(c3)OCO4)c3[nH]c4ccccc4c3C[C@@H]2C1=O` [Tadalafil, tadalafil]: the “Bone Density” value in test [1] (setting [3]) was determined as 458.4 ± 29.2 mg/mL; in test [1] (setting [4]) it was 510.0 ± 18.9 mg/mL; in test [1] (Newly formed Total Callus, Day 14, mean ± S.D.), 665.0 ± 2.0 mg/mL; in test [1] (Newly formed Total Callus, Day 42, mean ± S.D.) it was 697.2 ± 12.4 mg/mL. The “Callus Volume” value in test [1] (setting [3]) was 44.9 ± 11.7 mm^3; in test [1] (setting [4]), 66.3 ± 22.3 mm^3; in test [1] (setting [5]), 16.4 ± 4.7 mm^3; in test [1] (setting [6]) it was 35.6 ± 12.6 mm^3. Further, the “Mineral Content” value is 20.8 ± 6.3 mg in test [1] (setting [3]), 34.1 ± 12.7 mg in test [1] (setting [4]), 11.0 ± 3.8 mg in test [1] (setting [5]) and 24.1 ± 8.3 mg in test [1] (setting [6]). Also, in test [2] (setting [7]), the “higher maximum strength (maximum torque) than control group” value stood at 15%. For the same molecule, the “higher stiffness than control group” value in test [2] (setting [7]) is recorded as 28%. Further, the “Maximum Torque” value in test [2] (setting [8]) came out at 326.8 ± 138.0 Nmm. Also, the “Torsional Stiffness” value in test [2] (setting [8]) came out at 59.9 ± 31.1 Nmm/Deg. In addition, in test [2] (day 42, torsion test, mean ± S.D., I = 1, II = 2, III = 3, IV = 4), the “Fracture Repair Stage (I, II, III or IV)” value is on record as 2.4 ± 0.5.

Values taken from patent publication US10792324B2, “Compositions and methods for the treatment of orthopedic ailments” (K.L.R.M., LLC, priority 2016, dated 2020).
